Test [1] relates to human CD4+ T-cells. Briefly: I-MUNE assay of human thrombopoietin peptides. Format: cell-based. The protocol: Peptides for use in the I-MUNE® assay as described in Example 3 were prepared based on the sequence of the first 152 residues of human thrombopoietin (i.e., the active domain of TPO), as well as the entire TPO sequence, including the CHO binding domain (GenBank Accession No. P40225) with the sequence:
The I-MUNE® assay described in Example 3, was conducted using cells obtained from 99 donors. The background was determined to be 2.5, and the standard deviation was 9.2. FIG. 7 provides a graph showing the data obtained in the I-MUNE® assay with the first 152 residues of TPO (i.e., the active domain).
FIG. 8 provides a graph showing the results for the I-MUNE® assay conducted using the entire TPO molecule, including the CHO binding domain.
FIG. 9, Panels A and B provide graphs showing the results for TPO epitope #45, in which the critical residues were tested. The average parental residue response was 9.18±1.82. Values less that 3.5% were equivalent to 3 standard deviations under the averaged response of the parent peptides.

The test system of test [2] is human CD4+ T-cells. The test can be described thus: I-MUNE assay of soluble human TNF-R1 peptides. It counts as cell-based. To be noted: FIG. 10. The protocol:
Peptides for use in the I-MUNE® assay as described in Example 3 were prepared based on the sequence of the soluble human tumor necrosis factor receptor 1 (TNF-R1) (GenBank Accession No. P19438) with the sequence:
The background was determined to be 2.23 and the value for three standard deviations was 8.07. This epitope has the sequence CSLCLNGTVHLSCQE (SEQ ID NO:107). […] This variant was then reported to have a reduced immunogenic capacity when tested in a non-human primate (See, Rosenberg et al., J. Appl. Physiol., 91:2213-2223 [2001]). Thus, it is contemplated that modifications in this epitope will provide advantages in the development of sTNFR-1 for use in treatment.

Test [3] deals with human CD4+ T-cells. Briefly: I-MUNE assay of IFN-β variant peptides. It counts as cell-based. To be noted: for status on additional testing: FIG. 5. How it is done: A set of variant peptides was ordered based on the sequences of peptides #1 (SEQ ID NO:2), #27 (SEQ ID NO:28), and #40 (SEQ ID NO:41). An alanine scan was performed for each peptide. In addition, variant peptides were ordered that corresponded to the peptide sequences as described by Runkel et al., (Runkel et al., Biochem., 39:2538-2551 [2000]). These variant peptides were synthesized by Mimotopes (San Diego, Calif.) using the multi-pin synthesis technique known in the art (See e.g., Maeji et al., J. Immunol. Meth., 134:23-33 [1990]).
The I-IMUNE® assay was performed as described in Example 3, utilizing the variant peptides on a set of 103 donor samples. […] Epitope #40 returned a consistent donor response percent of 15%.

The subject of test [4] is human CD4+ T-cells. Briefly: I-MUNE assay of IFN-β 15mer peptides (T-cell proliferation). Format: cell-based. The settings on record: percent of donors with proliferative response at least 2.95 times baseline; 87 donors; 5 μM peptide. The protocol:
Fresh human peripheral blood cells were collected from 87 humans of unknown exposure status to IFN-β. These cells were tested to determine antigenic epitopes in IFN-β, as described in Example 3.
Peripheral mononuclear blood cells (stored at room temperature, no older than 24 hours) were prepared for use as follows: Approximately 30 mls of a solution of buffy coat preparation from one unit of whole blood was brought to 50 ml with Dulbecco's phosphate buffered solution (DPBS) and split into two tubes. The samples were underlaid with 12.5 ml of room temperature Lymphoprep density separation media (Nycomed; Pharma AS; Density 1.077 g/ml). The tubes were centrifuged for thirty minutes at 600×g. The interface of the two phases was collected, pooled and washed in DPBS. The cell density of the resultant solution was measured by hemocytometer, as known in the art. Viability was measured by trypan blue exclusion, as known in the art. […]
CD4+ T cells were prepared from frozen aliquots of the peripheral blood cell samples used to prepare the dendritic cells, using reagents provided by the Dynal CD4+ T-cell enrichment kit (Dynal). The resultant CD4+ cell solution was centrifuged, resuspended in AIMV media and the cell density was determined using methods known in the art. […]

The test system of test [5] is human CD4+ T-cells. The test can be described thus: I-MUNE assay of human erythropoietin peptides. Format: cell-based. The settings on record: 59 donors; FIG. 11. How it is done:
Peptides for use in the I-MUNE® assay as described in Example 3 were prepared based on the sequence of human erythropoietin (EPO), (GenBank Accession No. P1588), with the sequence:
The I-MUNE® assay described in Example 3, was conducted using cells obtained from 59 donors. FIG. 11 provides a graph showing the data obtained in the I-MUNE® assay with the pepset produced from the EPO sequence above (SEQ ID NO:108). […] Peptide #34 has the sequence SGLRSLTTLLRALGA (SEQ ID NO:109), and peptide #48 has the sequence FRVYSNFLRGKLKLY (SEQ ID NO:110). As active mutants have been made in the region represented by peptides #34 and #48 (See, Elliott et al., 89:493-502 [1997]), it is contemplated that amino acid modifications in or around these peptides will provide variant EPO suitable for use as an EPO substitute.

The subject of test [6] is HLA-DR and -DQ antigens. Briefly: HLA association with response to epitope peptide #40. The settings on record: for percent non-responsive / percent responsive / relative risk: 186 donors. Set-up: species or system human. The protocol: The HLA-DR and DQ expression of all the donors tested in both rounds of assay testing described above were assessed using a commercially available PCR-based HLA typing kit (Bio-Synthesis). The phenotypic frequencies of individual HLA-DR and -DQ antigens among responders and non-responders to peptide #40 were tested using a chi-squared analysis with 1 degree of freedom. The increased or decreased likelihood of reacting to epitope #40, the relative risk, was calculated wherever the HLA antigen in question was present in both responding and non-responding donor samples.
A total of 186 donors were completely HLA typed, and were included in the analysis for epitope peptide #40.
The magnitude of the proliferative response to peptide #40 in responders and non-responders expressing HLA-DQ6 was also analyzed. […] As a control, non-responders to the peptide returned the same level of proliferation the peptide regardless of their expression of HLA-DQ6.

Some results are limits rather than exact numbers.

As for “RAPPTTAVPSRTSLVLTL (listed as Homo sapiens) [peptide #45]”, the response in test [1] (TPO epitope #45 critical residue testing, FIG. 9) came out at 9.18±1.82%. Moreover, in test [1] (entire TPO molecule, 99 donors, FIG. 8), the epitope identification entry is “epitope of interest”.

In the case of “CSLCLNGTVHLSCQE (listed as Homo sapiens) [SEQ ID NO:107]”, the epitope identification result in test [2] is “significant epitope”.

For “peptide #1: 15mer peptide of human IFN-β pepset, SEQ ID NO:2 (MSYNLLGFLQRSSNF)”, in test [3], the “status on additional testing” value was “non-statistically relevant”. The percent response in test [4] is given as not below 9.51%.

For the substance “peptide #27: 15mer peptide of human IFN-β pepset, SEQ ID NO:28 (WNETIVENLLANVYR)”, the “status on additional testing” value in test [3] was “non-statistically relevant”.

On to “SGLRSLTTLLRALGA (listed as Homo sapiens) [peptide #34]”, for which the epitope identification entry in test [5] is listed as “Epitopes of interest”.

The substance “peptide #40: 15mer peptide of human IFN-β pepset, SEQ ID NO:41; identified CD4+ T-cell epitope (SSLHLKRYYGRILHY)” showed a donor response percent in test [3] (103 donor samples) of 15%. Besides, the “magnitude of the proliferative response in responders expressing HLA-DQ6 versus responders not expressing HLA-DQ6” value in test [6] (FIG. 6, responder = stimulation index greater than 2.95) is on record as “significantly higher”. For the same substance, in test [6] (HLA-DQ6), the percent non-responsive stood at 25%, the percent responsive came to 61% and the relative risk came to 3.58. Besides, in test [6] (HLA-DR1), the percent non-responsive was determined as 3%, the percent responsive came to 17% and the relative risk is recorded as 0.19. In test [6] (HLA-DR15), this substance registered a percent non-responsive of 15%, a percent responsive of 39% and a relative risk of 2.68. This substance gave a percent response in test [4] of 18.18%.

Take “FRVYSNFLRGKLKLY (listed as Homo sapiens) [peptide #48]”: the epitope identification result in test [5] was “Epitopes of interest”.

The record behind these values is patent US20050220800A1, “Cytokines and cytokine receptors with reduced immunogenicity” (priority 2002, published 2005).
